This note sets out measurements from patent publication US20220370553A1, “PREBIOTIC-INDUCED ANTI-TUMOR IMMUNITY” (Sanford Burnham Prebys Medical Discovery Institute, priority 2019, published 2022).

Assay [1] deals with Bacteroides spp. In words: Anaerobic fecal cultures with 1% prebiotic, 16S rDNA quantification. Type of assay: cell-based. The conditions noted are these: fecal cultures of 12 healthy human subjects, 3-4 days at 37° C. How it is done:
Fecal samples derived from 12 healthy human subjects were cultivated in the presence or absence of 1% prebiotic. 16S rDNA sequences corresponding to Bifidobacterium, Bacteroides and Akkermansia muciniphila were quantified. Data are representative of three independent experiments. Graphs show the mean±s.e.m. *P<0.05, **P<0.005, ***P<0.001, ****P<0.0001 by one-way ANOVA with Tukey's correction.
Anaerobic fecal cultures. […] Anaerobic cultures (9% H2, 81% N2) were grown statically for 3-4 days at 37° C. and grown to approximate saturation.
Chemically-defined medium (CDM). CDM contains 50 mM HEPES, 2.2 mM KH2PO4, 10 mM Na2HPO4, 60 mM NaHCO3, 4 mM of each amino acid, except leucine (15 mM), 10 mL ATCC, Trace Mineral Supplement. CDM contained nucleoside bases (100 mg/L), inosine, xanthine, adenine, guanine, cytosine, thymidine and uracil (400 mg/L). CDM contained choline (100 mg/L), ascorbic acid (500 mg/L), lipoic acid (2 mg/L), hemin (1.2 mg/L) and myo-inositol (400 mg/L). Resazurin (1 mg/L) was added to visually monitor dissolved oxygen. The pH of the media was adjusted to 7.4.
Fecal samples derived from 12 healthy, vegetarian human subjects were cultivated in a chemically-defined medium the presence or absence of 1% prebiotic. Anaerobic cultures (9% H2, 81% N2) were grown statically for 3-4 days at 37° C. and grown to approximate saturation.

The subject of assay [2] is Yumm1.5 tumors. In words: Flow cytometry of tumor-infiltrating immune cells in Yumm1.5 tumors. Type of assay: in vivo, C57BL/6 mice. The conditions noted are these: 20 days following tumor inoculation. An excerpt:
FIG. 2B, Quantification of tumor-infiltrating effector (CD44hi) CD4+, CD8+ and CD45+ T cells from mice treated as in FIG. 2A (n=10). FIG. 2C, Quantification of tumor-infiltrating, IFN-g-producing CD4+ T cells from mice treated as in FIG. 2A (n=10). FIG. 2D, Quantification of tumor-infiltrating total DCs and subsets in mice treated as in FIG. 2A (n=10). FIG. 2E, MFI of MHC class I and MHC class II on DCs from the tumors of mice treated as in FIG. 2A (n=10). […] Graphs show the mean s.e.m. *P<0.05, **P<0.005, ***P<0.001,****P<0.0001 by two-way ANOVA with Tukey's correction (A) and by one-way ANOVA with Tukey's correction (B-E).
(§1) Tumor digestion. Tumors were excised, minced, and digested with 1 mg/ml collagenase D (Roche) and 100 μg/ml DNase I (Sigma) at 37° C. for 1 h. Digests were then passed through a 70-μm cell strainer to generate a single-cell suspension. The cells were washed twice with PBS containing 2 mM EDTA, and then stained for flow cytometry.
(§2) Flow cytometry. Tumor-derived single-cell suspensions were washed twice with FACS staining buffer, fixed for 15 min with 1% formaldehyde in PBS, washed twice, and resuspended in FACS staining buffer. For intracellular cytokine staining, cells were resuspended in complete RPMI-1640 (containing 10 mM HEPES, 1% non-essential amino acids and L-glutamine, 1 mM sodium pyruvate, 10% heat-inactivated fetal bovine serum (FBS), and antibiotics) supplemented with 50 U/mL IL-2 (NCI), […] brefeldin A (BFA, Sigma), and incubated with phorbol myristate acetate (10 ng/ml) and ionomycin (0.5 μg/ml) at 37° C. The cells were then fixed and permeabilized using a Cytofix/Cytoperm Kit (BD Biosciences) before staining. Antibodies to the following proteins were used: CD45.2 (104), CD8a (53-6.7), CD4 (GK1.5), CD44 (IM7), TNF-α (MP6-XT22), IFN-γ (XMG1.2), CD11c (N418), CD11b (M1/70), MHC class II (M5/114.15.2), PDCA (129c1), and B220 (RA3-6B2) from BioLegend, and antibodies to IL-2 (JES6-5H4) and MHC class I (AF6-88.5.5.3) from eBioscience. All data were collected on an LSRFortessa (BD Biosciences) and analyzed using FlowJo Software (Tree Star).
In general terms: In flow cytometry, cells or beads pass a laser one at a time.

Assay [3] concerns MC-38 mouse colorectal cancer cells. The experiment in a line: Flow cytometry of tumor-infiltrating immune cells in MC-38 tumors. Type of assay: in vivo, C57BL/6 mice. On the procedure: as §1, §2
MC-38 mouse colorectal cancer cells (1×10^6) were inoculated, and diets were continued after inoculation.

As for mucin, the “relative abundance of Bacteroides spp.” value in assay [1] is recorded as “increased”. Also, in assay [2], the “MHC class I and MHC class II on tumor-resident DCs” value was “higher levels”; the “dendritic cell subsets including pDCs and CD8a+ conventional DCs in tumors” value is listed as “increased”. In assay [2] (compared to control mice), the “effector (CD44hi) CD4+ and CD8+ T cells, and CD45+ cells in tumors” value is “enrichment”. Also, the “CD4+ or CD8+ T cells, CD45+ cells, cytokine production, DCs and DC subsets in tumors” value in assay [3] is “No differences”.
